Here are results for two compounds from patent publication US5116818A, “Method and kit for contraception with GnRH-antagonist” (Medical College of Hampton Roads, priority 1990, dated 1992).

For this assay, the system named is cynomolgus monkeys (Macaca fascicularis). Briefly: Study III: once-weekly Nal-Glu GnRH-antagonist plus 12 days of norgestimate, three treatment cycles. It is filed as in vivo. On the procedure: STUDY III. In this study, which is reported in more detail in Contraception, June, 1990, Vol. 31, No. 6, pp. 623-631, six regularly cycling adult female cynomolgus monkeys (Macaca fascicularis) were housed in individual cages in a controlled environment and checked daily for menstrual flow. Each primate underwent a study entry control menstrual cycle in which alternate day blood samples were taken (under ketamine anesthesia, 10 mg/kg, im) to verify maturation of the dominant follicle, presumed ovulation, and corpus luteum function. The experimental design is depicted in FIG. 1. On menstrual cycle days 2, 9, 16, and 23 (onset of menses =Day 1) three of the monkeys were injected sc with 0.1 mg/kg GnRH-antagonist ([Ac-D2 Nal^1, 4ClDPhe^2, D3 Pal^3, Arg^5,DGlu^6 (AA), DAla^10 ]- GnRH; Nal-Glu) in saline. This dose was selected based on dose-response findings reported in Fertil Seril 1987; 48:480-485. On cycle days 15 to 26, each female was administered 25 μg norgestimate/day orally. This treatment regimen (once-weekly GnRH-antagonist plus 12 days of progestin) was repeated for 2 additional cycles (84 days total). Two of the treated monkeys were ovariectomized at the end of the third treatment cycle to evaluate ovarian follicular morphology. […] Three control monkeys received saline injections and blank (progestin placebo) capsules according to the same regimen. Serum samples were assayed by RIA for estradiol, progesterone, LH, and FSH.

`C#C[C@]1(OC(C)=O)CC[C@H]2[C@@H]3CCC4=CC(=NO)CC[C@@H]4[C@H]3CC[C@@]21CC` (mixture of isomers) [norgestimate]: under “sequential norgestimate, histological sections on day 26”, the transformation of endometrium result is given as “effectively transformed proliferative to secretory endometrium”.

Consider “[Ac-D2 Nal^1, 4ClDPhe^2, D3 Pal^3, Arg^5,DGlu^6 (AA), DAla^10 ]- GnRH [Nal-Glu]”, for which the “completion of follicular maturation, ovulation and corpus luteum function” value (0.1 mg/kg sc on cycle days 2, 9, 16, 23, judged by serum LH, E2 and P levels) is reported as “effectively blocked”. Further, the “LH surges or serum progesterone rises” value (during the intermittent regimen) is “NO LH surges or serum progesterone rises were detected”. Where the note is “during the treatment cycles”, the serum progesterone is less than 0.1 ng/mL.
